{"source": "patent US9662329B2", "about": "“Use of survivin antagonists in polyomavirus-related disease” (University of Pittsburgh—Of the Commonwealth System of …, priority 2012, dated 2017)", "key": {"MKL-1 cells [1]": {"tested_on": "MKL-1 cells", "assay": "Trypan blue dye exclusion assay", "conditions": "for viability at 0.1 µM: Homo sapiens", "experimental": "Cells were equally seeded and treated with YM155 for 48 hours. To count blue stained dead cells, cells were treated with Accutase (Millipore), collected, resuspended in PBS, mixed with equal volume of Trypan blue (Lonza, 0.4%) and counted using a hemocytometer under the microscope. The counts were done in triplicate and the experiment was repeated three times.\nMKL-1 cells were co-stained with CFDA (green, live) and PI (red, dead). In FIG. 4D, column graphs represent mean and range quantitations (using ImageJ) of % CFDA positive and % PI positive cells."}, "MKL-1 cells [2]": {"tested_on": "MKL-1 cells", "assay": "Immunoblotting for cPARP, cCaspase 3 and LC3", "type": "cell-based, human", "conditions": "100 nM, 48 hours"}, "[3]": {"tested_on": "human MKL-1 MCC xenografts", "experimental": "Compounds were dissolved in sterile 0.9% saline solution for administration to animals.\nSix-week-old female triple immune-deficient NSG (Nod-SCID gamma) mice (Jackson Laboratory) were maintained in a specific pathogen-free environment.\nMCC cells were checked for viability >90% by trypan blue staining, resuspended in PBS (2×10^7 cells in 100 μl) and inoculated subcutaneously into the right flank of mice.\nAll treatments were delivered for three consecutive weeks. […] YM-155 (2 mg/kg) was given intraperitoneally on five consecutive days, followed by a two-day treatment free interval.\nTwo-tailed paired Student's t test was used to analyze statistical differences in qRT-PCR results. Mouse survival curves were estimated using the Kaplan-Meier product-limit method and were compared using the log-rank test (GraphPad Software, La Jolla, Calif.). A piecewise linear hierarchical Bayesian model (Zhao et al., Bayesian hierarchical changepoint methods in modeling the tumor growth profiles in xenograft experiments. Clinical Cancer Res 17, 1057 (Mar. 1, 2011)) was used to characterize differences in tumor volumes and growth between treatments.\nCells of Merkel cell polyomavirus (+) carcinoma cell lines MKL-1, MS-1, WaGa, and MKL-2 were checked for viability >90% by trypan blue staining, resuspended in PBS (2×10^7 cells in 100 μl) and inoculated subcutaneously into the right flank of mice.\nYM-155 was given intraperitoneally on five consecutive days, followed by a two-day treatment free interval. For YM155 this treatment continued for three weeks or until mice were euthanized. Mice were euthanized upon showing a tumor having a diameter of 20 mm, or upon a showing of significant distress (>20% weight loss or when they became moribund). Caliper measurements of the longest perpendicular tumor diameters were performed every other day and tumor volumes were calculated using the formula: (width)^2×(length/2). Survival was defined as time from the first day of treatment until death/sacrifice."}, "[4]": {"conditions": "three weeks treatment, bortezomib 1 mg/kg twice weekly, YM155 2 mg/kg 5 times weekly"}}, "note": "Read-outs that look alike come from different tables or passages of the source."}
{"smiles": "COCCn1c2c([n+](Cc3cnccn3)c1C)C(=O)c1ccccc1C2=O.[Br-]", "note": "[YM155, 1-(2-methoxyethyl)-2-methyl-4,9-dioxo-3-(pyrazin-2-ylmethyl)-4,9-dihydro-1H-naphtho[2,3-d]imidazol-3-ium bromide]", "values": [{"measurement": "cell killing, trypan blue vital dye exclusion", "setting": "MKL-1 cells [1]; 48 h, MKL-1", "result": "dose-dependent cell killing"}, {"measurement": "viability at 0.1 µM", "setting": "MKL-1 cells [1]; MKL-1, read-out: cells remaining viable at 48 hours, 100 nM for 3 hours, followed by wash out", "result": 51, "unit": "%"}, {"measurement": "viability at 0.1 µM", "setting": "MKL-1 cells [1]; MKL-1, read-out: cells remaining viable at 48 hours, 100 nM for 6 hours, followed by wash out", "result": 3, "unit": "%"}, {"measurement": "viability at 0.1 µM", "setting": "MKL-1 cells [1]; MKL-1, read-out: cells remaining viable at 48 hours, 100 nM for 12 hours, followed by wash out", "result": 1.8, "unit": "%"}, {"measurement": "LC3-II accumulation (marker for cell autophagy)", "setting": "MKL-1 cells [2]", "result": "did not initiate LC3-II accumulation"}, {"measurement": "apoptosis measured by caspase 3 and PARP cleavage", "setting": "MKL-1 cells [2]", "result": "No evidence of apoptosis"}, {"measurement": "survival after initiation of treatment", "setting": "[3]; Example 2, 2 mg/kg for three weeks", "result": "almost two months"}, {"measurement": "survival after treatment began", "setting": "[3]; Example 2, continuously at 4 mg/kg", "result": "more than three months"}, {"measurement": "tumor growth after treatment was stopped", "setting": "[3]; after single 3-week course, 2 mg/kg", "result": "all tumors resumed growth once YM155 was stopped"}, {"measurement": "tolerability / adverse effects in mice", "setting": "[3]; bortezomib 1 mg/kg twice weekly, YM155 2 mg/kg 5 times weekly", "result": "well-tolerated and no adverse effects or acute toxicities were noted"}, {"measurement": "mice dying during treatment (up to day 19)", "setting": "[3]; [4]", "result": "none"}, {"measurement": "xenograft tumor growth / progression during treatment", "setting": "[3]; [4]", "result": "markedly delayed MKL-1 xenograft growth"}]}
